Here are results for four compounds from patent US20130165368A1, “ANTIMICROBIAL COMPOUNDS” (priority 2010, published 2013).

Broadly, the MIC is the smallest concentration in the dilution series that meets the test's criterion for growth inhibition.

What all share (type): cell-based
One assay deals with Pseudomonas aeruginosa. Briefly: MIC agar dilution, micro-organism 7 (10662). Conditions: Pseudomonas aeruginosa 10662. As for the experimental part:
(§1) Throughout the period of testing the microbial strains were subcultured and incubated for 18-20 hours at 37° C. on a weekly basis. Horse blood agar plates were used to sustain the micro-organisms both prior to and throughout testing. The alkoxylated alkanols listed in Table II below were obtained (these are obtainable from Sigma-Aldrich Company Ltd, Dorset, England), each having a GC purity of at least 97%.
(§2) Molar equivalent concentrations were used to allow comparison between compounds of differing molecular mass. Due to weighing difficulties, any compound in solid form was melted in a water bath prior to dilution. To make ten-times strength concentrations, which takes into account agar dilution, 0.0352 mmol of each compound was weighed into plastic universal bottles and 4 mL of sterile distilled water (SDW) was added. To produce a homogenous emulsion the universals were vortexed; once achieved the emulsions were serial diluted by adding 2 mL to 2 mL of SDW.
(§3) Myristyl alcohol and lauryl alcohol were re-weighed and dissolved in 25 μL of the polar solvent 1-methyl-2-pyrrolidone (M6762; Sigma-Aldrich) in sterile glass universals due to an inability to achieve an even suspension. To maintain an even emulsion in the presence of SDW 37.5 μL of the non-ionic detergent Tween 20 (P1379, Sigma-Aldrich) was also added. 3.9375 mL of SDW was added to these, to create a 4 mL volume; they were vortexed and diluted as before.
(§4) For every 100 mL of Isosensitest agar (IST) (CM0471; Oxoid, Basingstoke, England), 3.1 g of the IST powder was added to 100 mL SDW (as per manufacturer's instructions) and sterilised for 15 minutes at 121° C. Once sterilised, the molten agar was cooled to 50° C. in a water-bath. Subsequently 4.8 g of CCEY powder (BC2160; Bioconnections, Wetherby, England), also known as Brazier's medium, was added to 100 mL SDW for every 100 mL of agar needed. This was then sterilised for 15 minutes at 121° C. Once sterilised the molten agar was cooled to 50° C. in a water-bath and 4 mL of egg-yolk emulsion (S2073; TCS Biosciences Ltd, Buckingham, United Kingdom) and 1 mL of lysed defibrinated horse blood (HB035; TCS Biosciences Ltd, Buckingham, United Kingdom) were also added for every 100 mL needed. Horse blood lysis is achieved by dilution to half concentration with SDW; when fully lysed the mixture will turn dark red in colour.
(§5) 18 mL agar was added to each universal and then poured into sterile Petri dishes. This step creates a 1/10 dilution resulting in agar plates of the required strength. Control plates for each set of strains were created by adding 18 mL of agar to 2 mL of SDW.
(§6) Suspensions of each bacterial species were prepared with a density equal to that of a 0.5 McFarland standard using a densitometer. All suspensions were made using sterile distilled water and fresh 18-20 hour cultures. As a 0.5 McFarland standard contains 1.5×10^8 CFU/mL and the multipoint inoculators applies 1 μL spots of liquid, each bacterial suspension was diluted 1/15 (20 μL suspension to 280 μL sterile distilled water).
(§7) Bacterial suspensions were prepared from fresh 18-24 hour cultures as previously described. 1 μL of each strain was inoculated onto all 100 agar plates containing a different chemical concentration and the 2 control plates. This was done using a multipoint inoculator which inoculates 20 strains per plate. All plates were incubated for 22 hours at 37° C. in aerobic conditions.
(§8) Each plate was examined for bacterial growth after 22 and 48 hours, with each being incubated in between examinations. A positive result was recorded as growth of ≧10 colonies. A negative result was recorded as growth of <10 colonies as this is equivalent to 99.9% inhibition. The lowest concentration of chemical that inhibited growth was recorded as the MIC. The results are recorded in Table IV below, where the numbers are quoted in mmol/L.
(§9) Further experiments have also been conducted to determine the MIC of a number of other compositions as follows. […]
(In general: In agar dilution the substance is mixed into plates at graded concentrations.)

For another assay, the system named is Acinetobacter baumannii. Briefly: MIC agar dilution, micro-organism 10 (19606). As to conditions: Acinetobacter baumannii 19606. As for the experimental part: as §1, §2, §3, §4, §5, §6, §7, §8, §9
For a further assay, the system named is Serratia marcescens. The assay is described as follows: MIC agar dilution, micro-organism 5 (10211). As to conditions: Serratia marcescens 10211. As to the method:
as §1, §2, §3, §4, §5, §6, §7, §8, §9

The next assay has as its system Yersinia enterocolitica. Briefly: MIC agar dilution, micro-organism 8 (11176). As to conditions: Yersinia enterocolitica 11176. As for the experimental part: as §1, §2, §3, §4, §5, §6, §7, §8, §9
In another assay the test system is Klebsiella pneumoniae. Briefly: MIC agar dilution, micro-organism 2 (9528). Conditions: Klebsiella pneumoniae 9528. As for the experimental part:
as §1, §2, §3, §4, §5, §6, §7, §8, §9

In the next assay the test system is Salmonella typhimurium. The assay is described as follows: MIC agar dilution, micro-organism 6 (74). As to conditions: Salmonella typhimurium 74. As to the method:
as §1, §2, §3, §4, §5, §6, §7, §8, §9

The next assay deals with Burkholderia cepacia. The assay is described as follows: MIC agar dilution, micro-organism 9 (1222). Conditions: Burkholderia cepacia 1222. As for the experimental part: as §1, §2, §3, §4, §5, §6, §7, §8, §9
Another assay deals with Enterobacter cloacae. Briefly: MIC agar dilution, micro-organism 4 (11936). As to conditions: Enterobacter cloacae 11936. As for the experimental part:
as §1, §2, §3, §4, §5, §6, §7, §8, §9

A further assay relates to Gram-negative species. The assay is described as follows: Additional antibacterial data, MIC (Table XII). Conditions: 24 hrs at 37° C.; for MIC (%) volume/volume: inoculum 10000 cfu/spot. As for the experimental part: (§10) Using the protocols outlined in the example above, the inventors further investigated the antibacterial effects of representative alkoxylated alkanol compounds. The inoculum was 10000 cfu/spot; inclubation was for 24 hrs at 37° C.

In assay [1] the test system is Stenotrophomonas maltophilia. Briefly: Additional antibacterial data, MIC (Table XII). Conditions: 24 hrs at 37° C.; for MIC (%) volume/volume: Stenotrophomonas maltophilia 10257, inoculum 10000 cfu/spot. As for the experimental part:
as §10

The test system of the next assay is Staphylococcus aureus. Briefly: Additional antibacterial data, MIC (Table XII), Gram positive control. As to conditions: Staphylococcus aureus 470273M (control); inoculum 10000 cfu/spot; 24 hrs at 37° C. As to the method: as §10
For assay [2], the system named is Staphylococcus aureus(MRSA). The description is as above. Conditions: Staphylococcus aureus(MRSA) 380022E (control); inoculum 10000 cfu/spot; 24 hrs at 37° C. As to the method:
as §10

In brackets after ≈: the same amount, converted by molar mass. Like-named read-outs stand apart in the source and are kept apart here.

As to `CCCCCCCCCCCCCCCCO` [C0, 1-Hexadecanol, reference compound], the MIC in the assay with Pseudomonas aeruginosa (22 hrs, read-out: MIC) is more than 880 µM; in the assay with Pseudomonas aeruginosa (48 hrs, read-out: MIC) it was more than 880 µM; with Acinetobacter baumannii (22 hrs, read-out: MIC) it was more than 880 µM; in the assay with Acinetobacter baumannii (48 hrs, read-out: MIC), more than 880 µM; in the assay on Serratia marcescens (22 hrs, read-out: MIC), more than 880 µM; in the assay with Serratia marcescens (48 hrs, read-out: MIC), more than 880 µM. The MIC in the assay on Yersinia enterocolitica (22 hrs, read-out: MIC) is more than 880 µM; in the assay on Yersinia enterocolitica (48 hrs, read-out: MIC) it was more than 880 µM; with Klebsiella pneumoniae (22 hrs, read-out: MIC) it was 880 µM (≈ 213 µg/mL); in the assay on Klebsiella pneumoniae (48 hrs, read-out: MIC) it was 880 µM (≈ 213 µg/mL); in the assay on Salmonella typhimurium (Salmonella enterica, 22 hrs, read-out: MIC), 880 µM (≈ 213 µg/mL); in the assay with Salmonella typhimurium (Salmonella enterica, 48 hrs, read-out: MIC) it was 880 µM (≈ 213 µg/mL). In addition, the MIC was more than 880 µM with Burkholderia cepacia (22 hrs, read-out: MIC); more than 880 µM with Burkholderia cepacia (48 hrs, read-out: MIC); more than 880 µM in the assay on Enterobacter cloacae (22 hrs, read-out: MIC); more than 880 µM with Enterobacter cloacae (48 hrs, read-out: MIC).
On to `CCCCCCCCCCCCCOCCOCCOCCOCCOCCOCCO` [C13E6, polyoxyethylene (6) tridecyl alcohol], for which the MIC in the assay on Pseudomonas aeruginosa (22 hrs), in the assay on Pseudomonas aeruginosa (48 hrs), in the assay on Acinetobacter baumannii (22 hrs), with Acinetobacter baumannii (48 hrs), with Serratia marcescens (22 hrs) and against Serratia marcescens (48 hrs) was more than 880 µM in each case. Besides, the MIC with Yersinia enterocolitica (22 hrs), in the assay with Yersinia enterocolitica (48 hrs), in the assay with Klebsiella pneumoniae (22 hrs), in the assay on Klebsiella pneumoniae (48 hrs), in the assay with Salmonella typhimurium (22 hrs) and against Salmonella typhimurium (48 hrs) was more than 880 µM throughout. The MIC in the assay on Burkholderia cepacia (22 hrs), against Burkholderia cepacia (48 hrs), in the assay with Enterobacter cloacae (22 hrs) and with Enterobacter cloacae (48 hrs) was more than 880 µM each time.
`CCCCCCCCCCCCOCCO` [L1, Ethylene Glycol Monododecyl Ether]: the “MIC (%) volume/volume” value against Gram-negative species (Acinetobacter baumannii 19606) turned out to be 1 % volume/volume; against Gram-negative species (Escherichia coli 10418), 0.25 % volume/volume; in the assay on Gram-negative species (Klebsiella pneumoniae 9528), 0.5 % volume/volume; in assay [1], 0.5 % volume/volume; in the assay on Staphylococcus aureus it was 0.25 % volume/volume; in [2] it was 0.25 % volume/volume. Further, the “activity against selected Gram-negative species” value in the assay with Gram-negative species (at higher concentrations, 10000 cfu/spot) is “shows activity”.
`CCCCCCCCCCCCOCCOCCOCCOCCO` [L4, Tetraethylene Glycol Monododecyl Ether]: the “MIC (%) volume/volume” value with Gram-negative species (Acinetobacter baumannii 19606) was more than 4 % volume/volume; in the assay on Gram-negative species (Escherichia coli 10418), more than 4 % volume/volume; in the assay on Gram-negative species (Klebsiella pneumoniae 9528), more than 4 % volume/volume; in assay [1], 0.06 % volume/volume; against Staphylococcus aureus, 0.03 % volume/volume; in assay [2], 0.03 % volume/volume. In addition, the “susceptibility of Stenotrophomonas maltophilia” value in [1] (relatively low concentrations, 10000 cfu/spot) is “susceptible”.
